The results in this text go back to publication PMC10419799, “Modes of Action of a Novel c-MYC Inhibiting 1,2,4-Oxadiazole Derivative in Leukemia and Breast Cancer Cells” (Molecules, 2023).

Each structure is given as a SMILES string.

By Kd is commonly meant the constant that tells how readily two partners part at equilibrium.

The target of this assay is T1, c-MYC (Homo sapiens, UniProt P01106).
T1 construct: human recombinant c-MYC protein (Abcam ab169901)
Put plainly: microscale thermophoresis with RED-NHS labelled recombinant c-MYC. The format is binding. A general note: In MST a laser heats a spot of the sample, and binding alters the fluorescence response.

T1 sequence (P01106 16-454): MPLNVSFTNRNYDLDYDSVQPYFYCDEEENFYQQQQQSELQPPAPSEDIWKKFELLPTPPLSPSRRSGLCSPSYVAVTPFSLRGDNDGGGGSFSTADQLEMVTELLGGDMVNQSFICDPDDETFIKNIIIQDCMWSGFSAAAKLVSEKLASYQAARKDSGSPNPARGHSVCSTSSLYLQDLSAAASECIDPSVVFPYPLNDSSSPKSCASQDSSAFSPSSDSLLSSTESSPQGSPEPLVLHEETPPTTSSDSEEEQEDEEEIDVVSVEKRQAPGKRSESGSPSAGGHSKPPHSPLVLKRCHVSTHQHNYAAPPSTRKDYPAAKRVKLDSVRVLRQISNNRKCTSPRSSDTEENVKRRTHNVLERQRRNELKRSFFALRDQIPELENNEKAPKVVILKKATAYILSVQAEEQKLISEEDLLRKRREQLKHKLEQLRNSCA

`Cc1ccc(NC(=O)N2Cc3[nH]cnc3C[C@H]2c2nc(-c3ccc4ccccc4c3)no2)cc1` [ZINC15675948, (6S)-N-(4-methylphenyl)-6-(3-naphthalen-2-yl-1,2,4-oxadiazol-5-yl)-3,4,6,7-tetrahydroimidazo [4,5-c]pyridine-5-carboxamide]: the dissociation constant Kd stood at 1080 ± 100 nM.
